Common to all, as to type: biochemical
The target in assay [1] is T1, CYP3A4 (Homo sapiens, UniProt P08684). As to the kind of experiment: IC50 vs CYP3A by inhibition of lopinavir metabolism in human liver microsomes. The arrangement: 0.01 mg/mL protein human liver microsomes (BD Gentest); tissue BD Gentest; host or cells: human liver microsomes. Conditions: 1.5 μM lopinavir, 0.01 mg/mL human liver microsomes, 8 min at 37° C.; read-out: CYP IC50 (nM) 3A4 (LPV). The protocol:
Determination of IC50 vs CYP3A by Measurement of Inhibition of Lopinavir Metabolism
This assay was performed in a standard 96-well plate design. IC50 values were calculated from the percent inhibition observed for each test compound at 6 concentrations (for example, 0.098, 0.391, 1.56, 6.25, 25 and 100 nM). The incubation substrate mix contains 1.5 μM lopinavir, 0.01 mg/mL protein human liver microsomes (BD Gentest), 1 mM NAPDH, 3.3 mM MgCl2 and 100 mM potassium phosphate buffer (pH 7.4). The production of the sum of three hydroxylated metabolites (M2: 6-hydroxy lopinavir, M3: 4-hydroxy lopinavir, M4: 4-hydroxy lopinavir (epimer of M3), Kumar et al., 1999) was determined after incubation for 8 min at 37° C. Quantitation of the metabolite peak area ratio against an internal standard (tolbutamide) was determined by LC/MS/MS analysis following acetonitrile treatment of the incubations.
Samples were analyzed in the MRM mode with a SCIEX API-4000 mass spectrometer (Applied Biosystems, Foster City, Calif.), with a Shimadzu LC-20 AD pump (Shimadzu corporation, Kyoto, JP) and a CTC PAL autosampler (Agilent Technologies, Switzerland). A Phenomenex, Luna, 5 μm, 100 A, 2.00×30 mm HPLC column was used for the separation. The mobile phases were: (A) 0.1% formic acid in water and (B) 0.1% formic acid in acetonitrile. The binary gradient was as follows.
The peak area ratio of the analyte to the internal standard was used to quantify the metabolite. The values of peak area ratios in the presence of test compound were compared to those of maximum or minimum controls and were expressed as % inhibition by interpolating between the maximum and minimum peak area ratios. Incubations with no inhibitor were defined as the maxima and with 5 μM ketoconazole were defined as the minima.
The following equation was used to calculate the % inhibition: [1−[(X−Low control)/(High control−Low control)]]*100
For the IC50 calculation, SigmaPlot was used to plot the mean % inhibition versus the test compound concentrations and for non-linear regression analysis of the data. Depending on the range of data points defining the inhibition curve, the data may have been fit to the 4-parameter logistic equation.
Target sequence in this assay (P08684 2-503): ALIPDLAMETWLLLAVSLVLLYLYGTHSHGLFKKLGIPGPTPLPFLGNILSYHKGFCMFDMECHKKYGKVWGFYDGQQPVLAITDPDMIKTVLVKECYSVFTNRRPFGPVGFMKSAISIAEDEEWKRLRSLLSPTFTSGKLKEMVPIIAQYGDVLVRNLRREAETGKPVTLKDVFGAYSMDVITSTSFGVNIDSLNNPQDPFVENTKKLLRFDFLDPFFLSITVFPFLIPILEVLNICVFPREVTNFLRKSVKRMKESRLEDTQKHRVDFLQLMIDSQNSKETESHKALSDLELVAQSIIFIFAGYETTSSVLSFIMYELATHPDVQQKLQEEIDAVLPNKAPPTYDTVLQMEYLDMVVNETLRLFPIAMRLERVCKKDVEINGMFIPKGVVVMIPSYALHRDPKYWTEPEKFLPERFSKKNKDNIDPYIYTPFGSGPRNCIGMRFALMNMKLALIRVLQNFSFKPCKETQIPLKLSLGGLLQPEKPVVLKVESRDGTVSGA

Assay [2] deals with T2, CYP2C9 (Homo sapiens, UniProt P11712).
T2 construct: 0.1 mg/mL protein human liver microsomes (BD Gentest); tissue BD Gentest; host or cells: human liver microsomes
T2 sequence (P11712 whole entry): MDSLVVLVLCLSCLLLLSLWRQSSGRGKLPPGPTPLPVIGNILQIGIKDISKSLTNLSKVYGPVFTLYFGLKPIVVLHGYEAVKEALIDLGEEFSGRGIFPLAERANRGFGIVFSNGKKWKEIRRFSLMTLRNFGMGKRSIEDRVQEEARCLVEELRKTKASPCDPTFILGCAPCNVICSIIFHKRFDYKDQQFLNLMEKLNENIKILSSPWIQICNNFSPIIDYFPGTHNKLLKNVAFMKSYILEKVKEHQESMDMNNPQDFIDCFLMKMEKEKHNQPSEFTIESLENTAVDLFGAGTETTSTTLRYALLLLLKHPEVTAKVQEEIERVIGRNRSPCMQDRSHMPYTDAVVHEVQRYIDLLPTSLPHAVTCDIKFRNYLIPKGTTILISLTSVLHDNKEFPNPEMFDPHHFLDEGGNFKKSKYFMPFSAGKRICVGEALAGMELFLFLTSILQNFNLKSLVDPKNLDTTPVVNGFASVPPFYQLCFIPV
The experiment in a line: Cocktail assay for CYPs, diclofenac 4′-hydroxylation (CYP2C9), human liver microsomes. As to conditions: 5 μM diclofenac, 0.1 mg/mL human liver microsomes, 10 min at 37° C.; read-out: CYP IC50 (nM) 2C9. The protocol: (§1) Determination of IC50 in a Cocktail Assay for CYPs 1A2, 2C9, 2C19, 2D6 and 3A4:
(§2) This assay was performed in a standard 96-well plate design. […] The incubation substrate mix contains 10 μM phenacetin (1A2), 5 μM diclofenac (2C9), 30 μM mephenytoin (2C19), 5 μM dextromethorphan (2D6) and 2 μM midazolam (3A4), 0.1 mg/mL protein human liver microsomes (BD Gentest), 1 mM NAPDH, 3.3 mM MgCl2 and 100 mM potassium phosphate buffer (pH 7.4). The production of the metabolite of each probe substrate was determined after incubation for 10 min at 37° C. Quantitation of the metabolite peak area ratio against an internal standard (tolbutamide) was determined by LC/MS/MS analysis following acetonitrile treatment of the incubations.
(§3) Samples were analyzed in the MRM mode with a SCIEX API-4000 mass spectrometer (Applied Biosystems, Foster City, Calif.), with a Shimadzu LC-20 AD pump (Shimadzu corporation, Kyoto, JP) and a CTC PAL autosampler (Agilent Technologies, Switzerland). A Phenomenex, Luna, […], 100 A, 2.00×30 mm HPLC column was used for the separation. The mobile phases were: (A) 0.1% formic acid in water and (B) 0.1% formic acid in acetonitrile. The binary gradient was as follows.
(§4) The peak area ratio of the analyte to the internal standard was used to quantify the metabolite. The values of peak area ratios in the presence of test compound were compared to those of maximum or minimum controls and were expressed as % inhibition by interpolating between the maximum and minimum peak area ratios. Incubations with no inhibitor were defined as the maxima. The following equation was used to calculate the % inhibition: [1−[(X−Low control)/(High control−Low control)]]*100 For the IC50 calculation, SigmaPlot was used to plot the mean % inhibition versus the test compound concentrations and for non-linear regression analysis of the data. Depending on the range of data points defining the inhibition curve, the data may have been fit to the 4-parameter logistic equation.
(In general: Liver microsomes are vesicles of endoplasmic reticulum, rich in cytochrome P450 enzymes.)

Assay [3] has as its target T3, CYP2C19 (Homo sapiens, UniProt P33261).
T3 construct: 0.1 mg/mL protein human liver microsomes (BD Gentest); tissue BD Gentest; host or cells: human liver microsomes
The experiment in a line: Cocktail assay for CYPs, mephenytoin 4′-hydroxylation (CYP2C19), human liver microsomes. As to conditions: 30 μM mephenytoin, 0.1 mg/mL human liver microsomes, 10 min at 37° C.; read-out: CYP IC50 (nM) 2C19. The protocol: as §1, §2, §3, §4

Assay [4] has as its target T4, CYP1A2 (Homo sapiens, UniProt P05177).
T4 construct: 0.1 mg/mL protein human liver microsomes (BD Gentest); tissue BD Gentest; host or cells: human liver microsomes
T4 sequence (P05177 1-516): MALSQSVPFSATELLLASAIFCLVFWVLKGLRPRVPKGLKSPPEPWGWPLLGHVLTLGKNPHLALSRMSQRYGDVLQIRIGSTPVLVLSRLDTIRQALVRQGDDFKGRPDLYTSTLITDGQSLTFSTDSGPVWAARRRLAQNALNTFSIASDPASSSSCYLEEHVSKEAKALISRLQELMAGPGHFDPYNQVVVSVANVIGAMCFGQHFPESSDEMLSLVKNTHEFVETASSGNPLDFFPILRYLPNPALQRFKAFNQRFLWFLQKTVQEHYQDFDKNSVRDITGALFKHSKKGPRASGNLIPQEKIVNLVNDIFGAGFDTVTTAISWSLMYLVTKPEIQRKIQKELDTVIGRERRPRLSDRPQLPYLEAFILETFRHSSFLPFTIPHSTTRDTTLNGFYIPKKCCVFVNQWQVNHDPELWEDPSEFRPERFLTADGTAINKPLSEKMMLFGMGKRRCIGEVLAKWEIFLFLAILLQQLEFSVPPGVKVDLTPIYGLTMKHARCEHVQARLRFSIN
As to the kind of experiment: Cocktail assay for CYPs, phenacetin O-deethylation (CYP1A2), human liver microsomes. As to conditions: 10 μM phenacetin, 0.1 mg/mL human liver microsomes, 10 min at 37° C.; read-out: CYP IC50 (nM) 1A2. How it is done: as §1
(§5) This assay was performed in a standard 96-well plate design. IC50 values were calculated from the percent inhibition observed for each test compound at 6 concentrations (for example, 0.0032, 0.016, 0.08, 0.4, 2 and 10 μM). The incubation substrate mix contains 10 μM phenacetin (1A2), 5 μM diclofenac (2C9), 30 μM mephenytoin (2C19), 5 μM dextromethorphan (2D6) and 2 μM midazolam (3A4), 0.1 mg/mL protein human liver microsomes (BD Gentest), 1 mM NAPDH, 3.3 mM MgCl2 and 100 mM potassium phosphate buffer (pH 7.4). The production of the metabolite of each probe substrate was determined after incubation for 10 min at 37° C. Quantitation of the metabolite peak area ratio against an internal standard (tolbutamide) was determined by LC/MS/MS analysis following acetonitrile treatment of the incubations.
as §3, §4

The target in assay [5] is T1, CYP3A4. As to the kind of experiment: Cocktail assay for CYPs, midazolam 1′-hydroxylation (CYP3A4), human liver microsomes. The arrangement: 0.1 mg/mL protein human liver microsomes (BD Gentest); tissue BD Gentest; host or cells: human liver microsomes. Conditions: 2 μM midazolam, 0.1 mg/mL human liver microsomes, 10 min at 37° C.; read-out: CYP IC50 (nM) 3A4 (MDZ). The protocol:
as §1, §5, §3, §4
Target sequence in this assay (P08684 whole entry): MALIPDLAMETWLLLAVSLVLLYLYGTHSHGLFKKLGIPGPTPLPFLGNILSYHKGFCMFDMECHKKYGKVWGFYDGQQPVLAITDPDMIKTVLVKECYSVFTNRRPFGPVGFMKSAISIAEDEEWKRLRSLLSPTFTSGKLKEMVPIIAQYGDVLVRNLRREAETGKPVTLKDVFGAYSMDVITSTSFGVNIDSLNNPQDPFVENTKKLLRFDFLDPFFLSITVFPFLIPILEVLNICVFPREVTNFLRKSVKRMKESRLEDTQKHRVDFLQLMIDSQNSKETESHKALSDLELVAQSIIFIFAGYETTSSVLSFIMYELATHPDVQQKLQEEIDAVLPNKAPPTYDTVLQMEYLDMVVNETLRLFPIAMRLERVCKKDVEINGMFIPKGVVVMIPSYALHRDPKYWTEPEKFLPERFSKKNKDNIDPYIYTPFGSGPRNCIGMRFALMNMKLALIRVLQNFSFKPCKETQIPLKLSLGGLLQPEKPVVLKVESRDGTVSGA

For assay [6], the target named is T5, CYP2D6 (Homo sapiens, UniProt P10635).
T5 construct: 0.1 mg/mL protein human liver microsomes (BD Gentest); tissue BD Gentest; host or cells: human liver microsomes
T5 sequence (P10635 whole entry): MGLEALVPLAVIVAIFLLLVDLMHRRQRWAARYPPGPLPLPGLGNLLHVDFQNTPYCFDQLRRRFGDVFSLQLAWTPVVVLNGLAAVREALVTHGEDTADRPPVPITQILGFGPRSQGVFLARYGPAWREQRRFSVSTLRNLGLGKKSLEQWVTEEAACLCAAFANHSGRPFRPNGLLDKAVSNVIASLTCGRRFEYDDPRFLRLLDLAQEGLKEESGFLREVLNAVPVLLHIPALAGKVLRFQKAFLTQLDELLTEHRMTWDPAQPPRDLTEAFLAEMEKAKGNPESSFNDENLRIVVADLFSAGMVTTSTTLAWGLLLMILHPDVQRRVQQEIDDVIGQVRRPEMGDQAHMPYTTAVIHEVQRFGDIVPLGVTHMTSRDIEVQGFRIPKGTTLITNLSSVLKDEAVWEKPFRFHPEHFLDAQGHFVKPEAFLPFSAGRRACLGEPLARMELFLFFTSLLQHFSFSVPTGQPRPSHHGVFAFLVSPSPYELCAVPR
As to the kind of experiment: Cocktail assay for CYPs, dextromethorphan O-demethylation (CYP2D6), human liver microsomes. Conditions: 5 μM dextromethorphan, 0.1 mg/mL human liver microsomes, 10 min at 37° C.; read-out: CYP IC50 (nM) 2D6. The protocol: as §1, §5, §3, §4

T3 sequence (P33261 whole entry): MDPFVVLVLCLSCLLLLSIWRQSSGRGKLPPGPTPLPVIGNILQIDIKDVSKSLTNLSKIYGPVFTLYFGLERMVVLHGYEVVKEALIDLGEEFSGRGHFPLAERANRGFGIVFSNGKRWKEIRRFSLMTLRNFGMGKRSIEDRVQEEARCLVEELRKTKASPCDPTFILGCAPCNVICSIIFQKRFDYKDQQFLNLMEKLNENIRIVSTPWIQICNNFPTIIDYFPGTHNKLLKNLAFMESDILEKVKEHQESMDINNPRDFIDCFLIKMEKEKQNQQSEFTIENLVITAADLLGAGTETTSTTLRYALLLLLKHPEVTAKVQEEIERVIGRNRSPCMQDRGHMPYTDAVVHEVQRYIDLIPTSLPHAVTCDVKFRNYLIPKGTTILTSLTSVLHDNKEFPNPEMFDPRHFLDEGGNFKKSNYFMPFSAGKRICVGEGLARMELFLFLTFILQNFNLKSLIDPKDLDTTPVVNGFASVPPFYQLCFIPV

The IC50 is the concentration that inhibits the measured activity by half. Regarding `CN1CCN(c2ncc(S(=O)(=O)N3CCCC3c3ccc(-c4cncn4CCc4ccc(F)cc4)cc3)s2)CC1` (stereo not drawn) [Compound 9, 5-((2-(4-(1-(4-fluorophenethyl)-1H-imidazol-5-yl)phenyl)pyrrolidin-1-yl)sulfonyl)-2-(4-methylpiperazin-1-yl)thiazole], the IC50 was 2.4 nM in assay [1]; 684 nM in assay [2]; 148 nM in assay [3]; greater than 10000 nM in assay [4]; 9 nM in assay [5]; 2100 nM in assay [6].
In the case of `CC(=O)Nc1ncc(S(=O)(=O)NCc2ccc(-c3cncn3CCc3ccc(F)cc3)cc2)s1` [Compound 12, N-(5-(N-(4-(1-(4-fluorophenethyl)-1H-imidazol-5-yl)benzyl)sulfamoyl)thiazol-2-yl)acetamide], the IC50 in assay [1] was determined as 5 nM; in assay [2], 49 nM; in assay [3] it was 300 nM; in assay [4] it was 2400 nM; in assay [5] it was 8.7 nM; in assay [6] it was 675 nM.
As for `O=C(c1ccc(N2CCOCC2)nc1)N1CCCC1c1ccccc1-c1cncn1CCc1ccc(F)cc1` (single isomer, unassigned) [Compound 43a, (R or S)-(2-(2-(1-(4-fluorophenethyl)-1H-imidazol-5-yl)phenyl)pyrrolidin-1-yl) (6-morpholino-pyridin-3-yl) methanone], the IC50 is 35.2 nM in assay [1]; greater than 10000 nM in assay [2]; 3270 nM in assay [3]; greater than 10000 nM in assay [4]; 36.3 nM in assay [5]; greater than 10000 nM in assay [6].
Regarding `O=S(=O)(c1ccc(N2CCC(O)CC2)nc1)N1CCCC1c1cccc(-c2cncn2CCc2ccc(F)cc2)c1` (single isomer, unassigned) [Compound 57a, (R or S)-1-(5-((2-(3-(1-(4-fluorophenethyl)-1H-imidazol-5-yl)phenyl)pyrrolidin-1-yl)sulfonyl)pyridin-2-yl) piperidin-4-ol], the IC50 in assay [1] turned out to be 3.7 nM; in assay [2], 365 nM; in assay [3], 331 nM; in assay [4], 367 nM; in assay [5] it was 10.4 nM; in assay [6], 2200 nM.
In the case of `CC(=O)Nc1ncc(S(=O)(=O)N2CCc3cc(-c4cncn4CCc4ccc(F)cc4)ccc3C2)s1` [Compound 1, N-(5-((6-(1-(4-fluorophenethyl)-1H-imidazol-5-yl)-3,4-dihydroisoquinolin-2(1H)-yl)sulfonyl)thiazol-2-yl)acetamide], the IC50 in assay [1] worked out at 2.3 nM; in assay [2] it was 10 nM; in assay [3], 44 nM; in assay [4], 1450 nM; in assay [5] it was 11 nM; in assay [6], 765 nM.
With `O=C(C1CCOCC1)N1CCCC1c1cccc(-c2cncn2CCc2ccc(F)cc2)c1` (single isomer, unassigned) [Compound 49a, (R or S)-(2-(3-(1-(4-fluorophenethyl)-1H-imidazol-5-yl)phenyl)pyrrolidin-1-yl)(tetrahydro-2H-pyran-4-yl)methanone], the IC50 is 29.6 nM in assay [1]; 9740 nM in assay [2]; 3830 nM in assay [3]; greater than 10000 nM in assay [4]; 30.1 nM in assay [5]; 4700 nM in assay [6].
With `CC(=O)Nc1ncc(S(=O)(=O)N2Cc3cccc(-c4cncn4CCc4ccc(F)cc4)c3C2)s1` [Compound 15, N-(5-((4-(1-(4-fluorophenethyl)-1H-imidazol-5-yl)isoindolin-2-yl)sulfonyl)thiazol-2-yl)acetamide], the IC50 was 8 nM in assay [1]; 1230 nM in assay [2]; 155 nM in assay [3]; greater than 10000 nM in assay [4]; 6.4 nM in assay [5]; 1400 nM in assay [6].

Source of the values: US9975888B2, “Aryl linked imidazole and triazole derivatives and methods of use thereof for improving the pharmacokinetics of a drug” (MERCK SHARP & DOHME CORP., priority 2013, dated 2018).
